Laboratory results from patent US4703044A, “Imidazoquinolines containing other heterocyclic groups, useful as anti-ulcer or anti-secretory agents” (John Wyeth & Brother Limited, priority 1983, dated 1987).
Like-named read-outs stand apart in the source and are kept apart here.

What was measured:
[1] = molecular target: T1, H^+ /K^+ ATPase (Oryctolagus cuniculus, UniProt P27112); test: inhibition of 14C-aminopyrine accumulation in rabbit isolated gastric glands stimulated by DBcAMP or high K+ (H+/K+ ATPase inhibition); format: cell-based; conditions: 10^-4 M, 14C-aminopyrine uptake
T1 construct: Rabbit gastric glands are isolated from gastric mucosa from the corpus region of the stomach; from tissue; host or cells: isolated gastric glands from rabbit gastric mucosa, corpus region of the stomach
T1 sequence (P27112 whole entry): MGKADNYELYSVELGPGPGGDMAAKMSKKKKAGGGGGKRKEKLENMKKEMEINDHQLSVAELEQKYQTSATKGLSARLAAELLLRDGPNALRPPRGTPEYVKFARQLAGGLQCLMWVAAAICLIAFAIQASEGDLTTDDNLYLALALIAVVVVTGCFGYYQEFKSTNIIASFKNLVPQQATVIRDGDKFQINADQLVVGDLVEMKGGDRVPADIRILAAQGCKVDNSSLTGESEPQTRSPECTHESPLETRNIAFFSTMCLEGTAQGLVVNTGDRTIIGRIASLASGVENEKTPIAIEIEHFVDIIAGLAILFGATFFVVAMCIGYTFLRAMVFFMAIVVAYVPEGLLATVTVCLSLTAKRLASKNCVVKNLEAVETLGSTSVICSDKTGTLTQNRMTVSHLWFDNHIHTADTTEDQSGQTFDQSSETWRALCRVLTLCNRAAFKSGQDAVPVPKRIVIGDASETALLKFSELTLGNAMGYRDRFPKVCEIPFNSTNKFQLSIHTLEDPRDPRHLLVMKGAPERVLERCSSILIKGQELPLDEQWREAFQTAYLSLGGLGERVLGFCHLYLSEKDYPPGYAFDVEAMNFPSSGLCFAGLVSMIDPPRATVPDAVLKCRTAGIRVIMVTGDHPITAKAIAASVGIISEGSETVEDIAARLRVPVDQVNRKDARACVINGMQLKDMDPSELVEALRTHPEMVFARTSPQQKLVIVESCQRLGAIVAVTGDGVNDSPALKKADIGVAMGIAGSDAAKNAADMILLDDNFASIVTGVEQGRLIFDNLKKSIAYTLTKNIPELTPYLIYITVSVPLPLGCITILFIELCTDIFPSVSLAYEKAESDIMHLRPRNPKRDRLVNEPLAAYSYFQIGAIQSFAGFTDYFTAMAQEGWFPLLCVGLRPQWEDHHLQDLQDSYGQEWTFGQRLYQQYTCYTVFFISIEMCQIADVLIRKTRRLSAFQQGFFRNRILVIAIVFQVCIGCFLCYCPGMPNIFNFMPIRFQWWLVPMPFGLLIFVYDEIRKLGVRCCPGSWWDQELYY
T1 sequence (P18597 whole entry partner): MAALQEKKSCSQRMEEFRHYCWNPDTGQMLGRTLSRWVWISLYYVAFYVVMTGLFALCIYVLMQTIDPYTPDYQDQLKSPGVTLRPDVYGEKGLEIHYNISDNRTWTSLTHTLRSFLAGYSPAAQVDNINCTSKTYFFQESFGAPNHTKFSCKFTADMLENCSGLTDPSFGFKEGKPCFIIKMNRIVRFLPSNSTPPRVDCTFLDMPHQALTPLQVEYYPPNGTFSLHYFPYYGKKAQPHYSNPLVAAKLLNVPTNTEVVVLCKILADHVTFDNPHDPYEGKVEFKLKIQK
Experimental: Compounds of formula I were also tested for anti-secretory activity by their ability to inhibit the highly specific proton transporting enzyme H^+ /K^+ ATPase.
Potential H^+ /K^+ ATPase inhibitors are evaluated by a technique involving the measurement of aminopyrine accumulation in rabbit isolated gastric glands. Aminopyrine, which is a weak base, accumulates in acid-secreting cells; therefore, uptake of aminopyrine is increased by secretagogues and an inhibitor of acid secretion will reduce the response to one or more secretagogues depending upon its site of action. Compounds which reduce the response to dibutyryl cyclic adenosine monophosphate (DBcAMP) stimulation are assumed to have an intracellular site of action, and those which reduce the response to both DBcAMP and high potassium ion concentration (K^+) are thought to have an intracellular site of action at the secretory surface of the parietal cell, involving the highly specific proton - transporting enzyme, H^+ /K^+ ATPase. The following test procedure is used:
Rabbit gastric glands are isolated from gastric mucosa from the corpus region of the stomach by a method based on one described by Berglindh T., Obrink K. J., Acta Physiol. Scand. 96, 150-159 (1976). Measurement of aminopyrine uptake is carried out using a modification of the method described by Berglindh T., Hellander H. F., Obrink K. J. (ibid, 97, 401-414, 1976).
Compounds are tested at a concentration of 10^-4 M, initially, and in some cases at lower concentrations, for their ability to inhibit ^14 C-aminopyrine uptake in gastric glands, stimulated by DBcAMP and high K^+ respectively. Results are expressed as the % inhibition of the maximum response to the secretagogue induced by the test compound. An inhibitor of H^+ /K^+ ATPase would be expected to reduce the response to both secretagogues.

[2] = stress-induced erosion test (Senay and Levine), anti-ulcer activity; format: in vivo
Experimental: Anti-ulcer activity was determined by the stress-induced erosion test of Senay and Levine, Proc. Soc. Exp. Biol. Med., 124, 1221-3 (1967).

[3] = anti-secretory test of Shay et al (as exemplified by Beattie et al); format: in vivo; conditions: read-out: Anti-Secretory (Shay et al) % Change in volume
[4] = DBcAMP stimulation, read-out: % Inhibition to Stimulation by DBcAMP at 10^-4
[5] = high K+ stimulation, read-out: % Inhibition to Stimulation by K^+ at 10^-4

Row | Compound | inhibition at 100 µM [1, 4] | inhibition at 100 µM [1, 5] | inhibition in vivo at 100 mg/kg [2] | change in vivo at 30 mg/kg [3]
1 | c1ccc(CSc2nc3cccc4c3n2CCC4)nc1 [Example 1, 5,6-Dihydro-2-(2-pyridylmethylthio)-4H-imidazo-[4,5,1-ij]-quinoline] | 34% | – | 69% | –
2 | c1ccc(-c2cccc(CSc3nc4cccc5c4n3CCC5)n2)cc1 [Example 6, 5,6-Dihydro-2-(2-(6-phenylpyridyl)methylthio)-[4H]-imidazo-[4,5,1-ij]quinoline] | 36% | 182% | 58% | –
3 | Cc1cnc(CSc2nc3cccc4c3n2CCC4)c(C)c1 [Example 7, 5,6-Dihydro-2-(2-(3,5-dimethylpyridyl)methylthio)-[4H]-imidazo-[4,5,1-ij]quinoline] | 70% | 74% | – | –
4 | c1ccc(-c2nc(CSc3nc4cccc5c4n3CCC5)cs2)cc1 [Example 9, 5,6-Dihydro-2-[(2-phenylthiazol-4-yl)methylthio]-4H-imidazo[4,5,1-ij]quinoline] | 75% | 122% | – | –
5 | COc1cc2c3c(c1)nc(SCc1cccc(-c4ccccc4)n1)n3CCC2 [Example 10B, 5,6-Dihydro-8-methoxy-2-[(6-phenylpyridin-2-yl)-methylthio]-4H-imidazo[4,5,1-ij]quinoline] | 98% | 136% | – | –
6 | c1ccc2nc(CSc3nc4cccc5c4n3CCC5)ccc2c1 [Example 11, 5,6-dihydro-2-(quinolin-2-ylmethylthio)-4H-imidazo[4,5,1-ij]quinoline] | 62% | 147% | – | 22%
7 | COc1cc2c3c(c1)nc(SCc1ccncc1)n3CCC2 [Example 20, 5,6-Dihydro-8-methoxy-2-(4-pyridylmethylthio)-4H-imidazo[4,5,1-ij]quinoline] | 68% | – | – | –
8 | c1cc2c3c(c1)nc(SCc1ccncc1)n3CCC2 [Example 21, 5,6-Dihydro-2-(4-pyridylmethylthio)-4H-imidazo[4,5,1-ij]-quinoline] | 66% | – | – | –

Second part, led by results:

Row | inhibition at 100 µM [1, 4] | inhibition at 100 µM [1, 5] | Compound | inhibition in vivo at 100 mg/kg [2] | change in vivo at 30 mg/kg [3]
9 | 97% | 65% | [O-][S+](Cc1ccccn1)c1nc2cccc3c2n1CCC3 (stereo not drawn) [Example 2, 2-(2-Pyridylmethylsulphinyl)-5,6-dihydro-4H-imidazo-[4,5,1-ij]quinoline] | 60% | –
10 | – | -109% | Cc1cccnc1CSc1nc2cccc3c2n1CCC3 [Example 3, 5,6-Dihydro-2-(2-(3-methylpyridyl)methylthio)-4-[H]-imidazo-[4,5,1-ij]quinoline] | 68% | –
11 | 16.7% | 35.5% | C1=Cc2cccc3nc(SCc4ccccn4)n(c23)C1 [Example 4, 2-(2-Pyridylmethylthio)-4[H]-imidazo-[4,5,1-ij]quinoline] | – | –
12 | 66% | – | Cc1cccnc1C[S+]([O-])c1nc2cccc3c2n1CCC3 (stereo not drawn) [Example 5, 5,6-Dihydro-2-(2-(3-methylpyridyl)methylsulphinyl)-[4H]-imidazo-[4,5,1-ij]quinoline] | – | –
13 | 48% | – | Cc1cnc(C[S+]([O-])c2nc3cccc4c3n2CCC4)c(C)c1 (stereo not drawn) [Example 8] | – | –
14 | 70% | 124% | COc1cc2c3c(c1)nc(SCc1ccc4ccccc4n1)n3CCC2 [Example 19, 5,6-Dihydro-8-methoxy-2-(quinolin-2-ylmethylthio)-4H-imidazo-[4,5,1-ij]quinoline] | – | –
